The source of these data is a melting point compilation (Tetko et al.).

A word on the melting point: it is the temperature, or range, at which the solid turns liquid.

Starred links: 1 amine or outer side, 2 acyl side, 3 side chain; linkers in the order of their positions; H or OH if unused. Positions of bridges follow the written chain, without caps; N, C: chain ends. Non-standard residues stand in square brackets, D forms with d. Residues, ends and D or L forms follow the SMILES beside them. X6 = CCC(C)C(N[*:1])C(O)CC(=O)OC(C(=O)C(C)C(=O)[*:2])C(C)C; NMeY = CN[CH](Cc1ccc(O)cc1)C(=O)O; NMeL = CN[CH](CC(C)C)C(=O)O

`CCCCCCCCCCCCCCCCCC[Si](C)(C)O[C@@H]1c2cc(Br)ccc2-c2ccc(Br)cc2[C@H]1O[Si](C)(C)CCCCCCCCCCCCCCCCCC` (relative stereo) had a melting point of 51.5 to 52.5 °C.

Compound `CCc1c(CCNC(=O)CCC(=O)CCC(=O)NCCc2ccc(OCc3ccccc3)c(OCc3ccccc3)c2CC)ccc(OCc2ccccc2)c1OCc1ccccc1` returned a melting point of 188 to 192 °C. Regarding `CCOC(=O)C=Cc1cc2cc(OC)ccc2[nH]c1=O`, the melting point lay within 209 to 211 °C. For the compound `Cc1ccc(Cl)cc1C(N)=NO`, the melting point is 111 to 113 °C. In the case of `N=S(=O)(c1ccccc1)c1cccnc1` (stereo unspecified), the melting point is 109 °C. The result for `CCCCCCCCCCCCCCCC(=O)C(O)[C@](O)(C(=O)CCCCCCCCCCCCCCC)[C@@H](O)[C@H](O)[C@@](O)(C(=O)CCCCCCCCCCCCCCC)C(O)C(=O)CCCCCCCCCCCCCCC` (stereo partly specified) reads 72 to 74 °C; that for `CC(Br)C(=O)N=S(C)(=O)c1ccccc1` (stereo unspecified), 109 to 110 °C; that for `CC(OC(C)C(I)=C(I)I)C(I)=C(I)I` (stereo unspecified), 43.5 to 44.5 °C. `CCCCCCCCCCCCc1c2c(c(CCCCCCCCCCCC)c3c1-c1ccc(Br)cc1C3=C(C#N)C#N)-c1ccc(Br)cc1C2=C(C#N)C#N` had a melting point of 136 to 137 °C.

For `CCCCCCCCCCCCCC=CC(OC(=O)c1ccccc1)C(COC1OC(CO)C(OCCC(C(=O)OC(C)(C)C)C(=O)OC(C)(C)C)C(O)C1O)NC(=O)CCCCCCCCCCCCCCC` (stereo unspecified), the melting point lay within 48 to 50 °C.

`C=C(C)C(=O)OCCCCCCCCCCCOc1ccc(-c2nc(-c3ccc(OCCCCCCCCCCCOC(=O)C(=C)C)cc3O)nc(-c3ccc(OCCCCCCCCCCCOC(=O)C(=C)C)cc3O)n2)c(O)c1` yielded a melting point of 60.2 °C. As for `CC(C)[C@H](NC(=O)N(C)Cc1cscn1)C(=O)N[C@@H](Cc1ccccc1)[C@@H](O)[C@H](O)[C@H](Cc1ccccc1)NC(=O)[C@@H](NC(=O)N(C)Cc1cscn1)C(C)C`, the melting point fell in the range of 92 to 94 °C.

The compound `C=CCOc1nc(NC(C)(C)CC(C)(C)C)nc(N(CCCCCCN(c2nc(NC(C)(C)CC(C)(C)C)nc(OCC=C)n2)C2CC(C)(C)NC(C)(C)C2)C2CC(C)(C)NC(C)(C)C2)n1` showed a melting point of 210 to 212 °C.

`CCCCCCCCNC(=O)CO` came in with a melting point of 80 °C. For `FC(F)(F)C(F)(F)C(F)(F)C(F)(F)C(F)(F)C(F)(F)CCc1ccc(P(c2ccccc2)c2ccc(CCC(F)(F)C(F)(F)C(F)(F)C(F)(F)C(F)(F)C(F)(F)F)cc2)cc1` the value was 42.1 to 43.1 °C; for `COC(=O)Cc1ccc(C(NC(=O)CCC(Cc2ccccc2)(NC(=O)c2ccc(N(C)C3CCc4cc5nc(C)n(COC(=O)C(C)(C)C)c(=O)c5cc43)cc2F)C(=O)O)C(=O)OC)cc1` (stereo unspecified), 85 to 90 °C; for `CCOC(CN1C(=O)C2=C(c3cc4cc(C(C)(C)C)cc(C(C)(C)C)c4o3)N(CC(OCC)OCC)C(=O)C2=C1c1cc2cc(C(C)(C)C)cc(C(C)(C)C)c2o1)OCC`, 194 to 196 °C. The result for `COc1cc(OC)c(/C=C/C(c2ccc(OC)c(NCC(=O)O)c2)S(=O)(=O)C(/C=C/c2c(OC)cc(OC)cc2OC)c2ccc(OC)c(NCC(=O)O)c2)c(OC)c1` (stereo unspecified) reads 128 to 131 °C; that for `CCC(C)C1NC(=O)C(NC(=O)C(CC(C)C)N(C)C(C)=O)C(C)OC(=O)C(Cc2ccc(OC)cc2)N(C)C(=O)C2CCCN2C(=O)C(CC(C)C)NC(=O)C(C)C(=O)C(C(C)C)OC(=O)CC1O` (stereo unspecified) (Ac-[NMeL]T[X6]LP[NMeY](Me); ester 2-C; configuration not given here), 124 to 126 °C; that for `CCC(C)C1NC(=O)C(CC(C)C)NC(=O)C2CCCN2C(=O)C(C(C)C)NC(=O)C(Cc2ccc(O)cc2)NC(=O)C2CCCN2C(=O)C2CCCN2C(=O)C(C(C)CC)NC1=O` (stereo unspecified) (cyclo(IIPPYVPL); configuration not given here), 180 to 182 °C.

Compound `CCCCCCC=CC(OC(=O)c1ccccc1)C(COC1OC(COCC(=O)O)C(OCC(=O)O)C(OC(=O)c2ccccc2)C1OC(=O)c1ccccc1)NC(=O)CCCCCCCCC(=O)OC` (stereo unspecified) showed a melting point of 124 to 125 °C.
